Measured values taken from ChEMBL document CHEMBL4834430, “Design and Structure-Activity Relationships of Isothiocyanates as Potent and Selective N-Acylethanolamine-Hydrolyzing Acid Amidase Inhibitors” (J Med Chem, 2021).
Active and inactive are the calls of the source. The rule behind the calls is not given here.

Experiments:
[1] = Drug concentration in brain of CD-1 mouse at 2 mg/kg, iv administered as single cassette dose measured after 15 mins; assay type: ADME, organism-based; conditions: read-out: Ct
[2] = Drug concentration in plasma of CD-1 mouse at 8 mg/kg, po administered as single cassette dose measured after 60 mins; assay type: ADME, organism-based
[3] = Half life in human liver microsomes at 1 uM in presence of NADPH by LC-MS/MS analysis; assay type: ADME, Microsome
[4] = biological target: T1, Cathepsin K (Homo sapiens, UniProt P43235); test: Inhibition of recombinant human Cathepsin K using Z-Phe-Arg-AMC as fluorogenic substrate preincubated for 120 mins followed by substrate addition by fluorescence assay
T1 sequence (P43235 whole entry): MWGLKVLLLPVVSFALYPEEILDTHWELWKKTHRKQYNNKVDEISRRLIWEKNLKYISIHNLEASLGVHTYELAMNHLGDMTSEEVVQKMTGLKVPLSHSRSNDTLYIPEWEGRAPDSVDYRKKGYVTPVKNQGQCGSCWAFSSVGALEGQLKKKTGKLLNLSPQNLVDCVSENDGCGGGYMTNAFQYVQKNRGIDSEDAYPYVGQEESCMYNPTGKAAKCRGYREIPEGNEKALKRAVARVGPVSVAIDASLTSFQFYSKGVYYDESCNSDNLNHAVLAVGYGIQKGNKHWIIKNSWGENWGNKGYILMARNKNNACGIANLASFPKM

[5] = Half life in rat liver microsomes at 1 uM in presence of NADPH by LC-MS/MS analysis; assay type: ADME, Microsome
[6] = Drug concentration in plasma of CD-1 mouse at 8 mg/kg, po administered as single cassette dose measured after 30 mins; assay type: ADME, organism-based
[7] = Drug concentration in plasma of CD-1 mouse at 2 mg/kg, iv administered as single cassette dose measured after 15 mins; assay type: ADME, organism-based
[8] = biological target: T2, N-acylethanolamine-hydrolyzing acid amidase (Homo sapiens, UniProt Q02083); test: Inhibition of human NAAA using N-(4-methyl coumarin)-palmitamide as fluorogenic substrate preincubated for 90 mins followed by substrate addition by fluorescence assay
T2 sequence (Q02083 whole entry): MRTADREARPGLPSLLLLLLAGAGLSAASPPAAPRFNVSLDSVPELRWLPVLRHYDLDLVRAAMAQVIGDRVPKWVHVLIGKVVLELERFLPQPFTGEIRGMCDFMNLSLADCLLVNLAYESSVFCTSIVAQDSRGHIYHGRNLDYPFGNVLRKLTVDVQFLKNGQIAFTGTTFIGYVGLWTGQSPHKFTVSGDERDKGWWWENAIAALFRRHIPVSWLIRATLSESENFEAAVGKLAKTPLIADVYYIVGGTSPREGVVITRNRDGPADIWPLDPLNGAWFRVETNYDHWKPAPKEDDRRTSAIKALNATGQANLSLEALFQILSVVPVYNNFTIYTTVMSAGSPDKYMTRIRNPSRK

[9] = Half life in mouse liver microsomes at 1 uM in presence of NADPH by LC-MS/MS analysis; assay type: ADME, Microsome
[10] = biological target: T3, Cathepsin K (Homo sapiens) (UniProt P43235); test: Inhibition of recombinant human Cathepsin K at 1 uM using Z-Phe-Arg-AMC as fluorogenic substrate preincubated for 120 mins followed by substrate addition by fluorescence assay
T3 sequence (whole entry): T1 sequence (P43235 whole entry)

[11] = biological target: T4, N-acylethanolamine-hydrolyzing acid amidase (Homo sapiens) (UniProt Q02083); test: Covalent inhibition of human NAAA assessed as ratio of Kinact/Ki
T4 sequence (whole entry): T2 sequence (Q02083 whole entry)

[12] = biological target: T3, Cathepsin K (Homo sapiens); test: Inhibition of recombinant human Cathepsin K at 100 nM using Z-Phe-Arg-AMC as fluorogenic substrate preincubated for 120 mins followed by substrate addition by fluorescence assay relative to control
[13] = biological target: T4, N-acylethanolamine-hydrolyzing acid amidase (Homo sapiens); test: Inhibition of human NAAA at 1 uM using N-(4-methyl coumarin)-palmitamide as fluorogenic substrate preincubated for 90 mins followed by substrate addition by fluorescence assay relative to control
[14] = biological target: T2, N-acylethanolamine-hydrolyzing acid amidase; test: Inhibition of NAAA (unknown origin)
[15] = Drug metabolism in rat liver microsomes assessed as (R)-2-amino-3-((1s,3S)-3-(2-fluoro-4-(2-methoxypyridin-3-yl)benzyloxy)cyclobutylcarbamothioylthio)propanoic acid formation at 1 uM in absence of NADPH by LC-MS/MS analysis; assay type: ADME, Microsome
[16] = Drug metabolism in rat liver microsomes assessed as […] (R)-2-amino-3-((1s,3S)-3-(2-fluoro-4-(2-methoxypyridin-3-yl)benzyloxy)cyclobutylcarbamoylthio)propanoic acid formation at 1 uM in absence of NADPH by LC-MS/MS analysis; assay type: ADME
[17] = Drug metabolism in rat liver microsomes assessed as (1s,3s)-3-(2-fluoro-4-(2-methoxypyridin-3-yl)benzyloxy)cyclobutanamine formation at 1 uM in presence of NADPH by LC-MS/MS analysis; assay type: ADME, Microsome
[18] = Drug metabolism in rat liver microsomes assessed as (2-fluoro-4-(2-methoxypyridin-3-yl)phenyl)methanol formation at 1 uM in presence of NADPH by LC-MS/MS analysis; assay type: ADME, Microsome

SMILES	concentration at 0.25 h [1] [ng/g]	concentration at 1 h [2] [ng/mL]	half-life at 1 µM [3] [min]	half-life at 1 µM [5] [min]	concentration at 0.5 h [6] [ng/mL]	concentration at 0.25 h [7] [ng/mL]	IC50 [8] [nM]	half-life at 1 µM [9] [min]	Ratio [11]	also measured
Fc1cc(-c2ccc(OC(F)(F)F)c(F)c2)ccc1CO[C@H]1C[C@@H](N=C=S)C1	8	7	10.9	9.1	12	178	97.1	2.9		IC50 [4]: 58.6 nM
COc1ccc(-c2ccc(S(=O)(=O)N[C@H]3C[C@@H](N=C=S)C3)nc2)cc1	1150	2			3	126	6.3			inhibition [10]: inactive
COc1cccc(-c2ccc(CO[C@H]3C[C@@H](N=C=S)C3)cc2)c1							22		2.24 10^6/M/s	
COc1ccc(-c2ccc(C(=O)N[C@H]3C[C@@H](N=C=S)C3)nc2)cc1	809	8			12	264	7.6			inhibition [10]: inactive
S=C=N[C@H]1C[C@@H](OCc2ccc(-c3ccccc3)cc2)C1			16.1	19.6			93	14.4	7.23 10^6/M/s	
COc1ccc(-c2ccc(C(=O)N[C@H]3C[C@@H](N=C=S)C3)nc2)cc1F	690	8	13	8.6	11	264	26.6	14		inhibition [10]: inactive
COc1ccc(-c2ccc(CO[C@H]3C[C@@H](N=C=S)C3)c(F)c2)cc1F							20.6		2.85 10^6/M/s	inhibition [12]: 56.5%
COc1cnc(-c2ccc(CO[C@H]3C[C@@H](N=C=S)C3)cn2)cc1F			11.8	10.2			15	5.1		inhibition [12]: 56.8%
COc1ccc(-c2ccc(S(=O)(=O)N[C@H]3C[C@@H](N=C=S)C3)cc2)cc1F			8	6			3.2	6		inhibition [10]: inactive
COc1ccc(-c2ccc(CO[C@H]3CCC[C@@H](N=C=S)C3)cc2)cc1F										inhibition [13]: 35%
Fc1cc(-c2ccc3c(c2)OCCO3)ccc1CO[C@H]1C[C@@H](N=C=S)C1	12	7			12	168	11.8		2.43 10^5/M/s	
COc1cnc(-c2cnc(CO[C@H]3C[C@@H](N=C=S)C3)c(F)c2)cc1F			7.1	7.4			19.5	6.3		inhibition [12]: 43.7%
Cc1ccc(-c2ccc(CO[C@H]3C[C@@H](N=C=S)C3)cc2)cc1							26		2.04 10^6/M/s	
Fc1cc(-c2ccc3c(c2)OCO3)ccc1CO[C@H]1C[C@@H](N=C=S)C1	14	13	3.3	6.5	31	244	8.8	2.4	3.44 10^5/M/s	
CS(=O)(=O)c1ccc(-c2ccc(C(=O)N[C@H]3C[C@@H](N=C=S)C3)nc2)cc1										inhibition [13]: 41%
Fc1cc(-c2ccc3c(c2)CCO3)ccc1CO[C@H]1C[C@@H](N=C=S)C1							4.5			IC50 [4]: 83.5 nM
COc1ccc(-c2ccc(CO[C@H]3C[C@@H](N=C=S)C3)c(F)c2)cc1OC							58.9		7.97 10^5/M/s	
S=C=N[C@H]1C[C@@H](OCc2ccc(-c3ccc4occc4c3)cn2)C1							8.3			inhibition [12]: 55.8%
Fc1cc(-c2cccc(C(F)(F)F)c2)ccc1CO[C@H]1C[C@@H](N=C=S)C1	810	331	16	17.9	19	1010	67.2	13.2		
O=C(CCCCCc1cccc(Cl)c1)N1CCOC1=O										IC50 [14]: 9 nM
COc1ncccc1-c1ccc(CO[C@H]2C[C@@H](N=C=S)C2)c(F)c1			15.3	14.5			304	6.8		Drug metabolism [15]: Metabolite_Detected; Drug metabolism [16]: Metabolite_Detected; Drug metabolism [17]: Metabolite_Detected; Drug metabolism [18]: Metabolite_Detected
COc1ccc(-c2ccc(S(=O)(=O)N[C@H]3C[C@@H](N=C=S)C3)cc2)cc1	1090	20			20	164	2.3			inhibition [10]: inactive
COc1ccc(-c2ncc(C(=O)N[C@H]3C[C@@H](N=C=S)C3)o2)cc1										inhibition [13]: 51%
